Experimental findings from patent US20210277102A1, “COMPOSITIONS AND METHODS FOR TREATING A TUMOR SUPPRESSOR DEFICIENT CANCER” (BETH ISRAEL DEACONESS MEDICAL CENTER, INC., priority 2016, published 2021) are described below.

Entries after “also recorded” stand apart in the source; their conditions may differ.

Assay [1] deals with Pten^pc−/−; Zbtb7a^pc−/− prostate tumors. Briefly: In vivo drug and antibody treatment of Pten^pc−/−; Zbtb7a^pc−/− mice (MRI, flow cytometry, histology, western blot, qRT-PCR). On the set-up: species or system mouse. As for the experimental part: (§1) Mice were allocated at random to experimental groups and studies were performed in an unblended manner. For treatment with the CXCR2 antagonist, SB225002 (Cayman Chemical #13336) was dissolved in DMSO (10 mg/ml) and diluted in vehicle (0.9% NaCl, 0.3% Tween 80) for in vivo administration. Mice (4 months of age) were treated daily for 10 days by intraperitoneal injection (5 mg/kg) and prostate tumor tissue (anterior lobes) was subjected to Flow Cytometry and histological analysis. For MRI analysis, mice (4 months of age) were treated daily for 21 days (Pten^pc-/-; Zbtb7a^pc-/-), for 14 days (Pten^pc-/-; Trp53^pc-/-) or for 14 days (Pten^pc-/-; Pml^pc-/-) by intraperitoneal injection (5 mg/kg). For depletion of Gr-1+/CD11b+ cells, Ly6G-depletion antibody (1A8, BioXcell) and control Rat IgG2a antibody (BioXcell) were diluted in phosphate-buffered saline (PBS) for in vivo administration. Mice (4 months of age) were treated every other day for 10 days by intraperitoneal injection (200-300 μg/mouse). InVivoMAb anti-mouse Ly6G/Ly6C (Gr-1) antibody, clone RB6-8C5 (BE0075, BioXcell), and control Rat IgG2b antibody (BE0090, BioXcell) were diluted in PBS and Pten^pc-/-; Trp53^pc-/- mice were treated every other day for 14 days by intraperitoneal injection (200 μg/mouse). For neutralization of CXCL5, anti-Mouse CXCL5 antibody (Leinco Technologies) and control Rat IgG2a antibody (BioXcell) were diluted in PBS and injected every other day for 21 days by intraperitoneal injection (20 μg/mouse). Tumor volume quantification was performed by using VivoQuant and Image J software. All mouse prostate MRI imaging analysis was performed at Small Animal Imaging Core at BIDMC and acquired on an […] Model M2 1T tabletop scanner. For western blotting, cell lysates were prepared by homogenizing tumor tissue with NP40 Buffer (Boston Bioproducts) supplemented with protease (Roche) and HALT phosphatase inhibitor cocktails (Thermo Scientific) and subsequently subjected to SDS-Gel separation (Invitrogen) and western blotting. The following antibodies were used for western blotting: […] (AC-74; Sigma), CXCL5 (R & D Systems #AF433), pIRAK4 (Cell Signaling Technology #11927S), IRAK4 (Cell Signaling Technology #4363P), IκBα (Cell Signaling Technology #4812S), Zbtb7a (hamster anti-Zbtb7a clone 13E9), PTEN (Cell Signaling Technology #9559S), p53 (Cell Signaling Technology #2524S), p21 (Santa Cruz Biotechnology sc-6246) and HSP90 (BD Biosciences BDB610419). Western blots were quantified using Image J software. For immunohistochemistry, tissues and organoids were fixed in 4% paraformaldehyde and embedded in paraffin in accordance with standard procedures. Embedding and hematoxylin and eosin staining of sections were performed by the Histology Core at BIDMC and analyzed by a pathologist. Sections were stained with anti-LY6G (BioLegend #127603), anti-CD45R (Abcam #ab64100), anti-CD3 (Abcam #ab5690), anti-beta Catenin (Abcam #32572), anti-phospho ERK (Cell Signaling Technology #4376), anti-phospho AKT Ser473 (Cell Signaling Technology #4060) and anti-Ki67 (Thermo Scientific #RM-9106) according to manufacturer's recommendations. For Flow Cytometry, spleen and lymph node single cell suspensions were prepared by mashing the tissue in 2% FBS/PBS. Tumor and control prostate tissue (from anterior lobes) single cell suspension was prepared by mincing the tumor and digestion with Collagenase Type I (Life Technologies #17018029) in 10% DMEM (GIBCO) for 1 hr at 37° C. […]
A general note: A flow cytometer gives signals particle by particle.

For assay [2], the system named is Pten^pc−/−; Trp53^pc−/− prostate tumors. Kind of assay: In vivo drug and antibody treatment of Pten^pc−/−; Trp53^pc−/− mice (MRI, flow cytometry, histology). On the set-up: species or system mouse. As for the experimental part:
as §1, with “pathologist.” for “pathologist. Sections were stained with anti-LY6G (BioLegend #127603), anti-CD45R (Abcam #ab64100), anti-CD3 (Abcam #ab5690), anti-beta Catenin (Abcam #32572), anti-phospho ERK (Cell Signaling Technology #4376), anti-phospho AKT Ser473 (Cell Signaling Technology #4060) and anti-Ki67 (Thermo Scientific #RM-9106) according to manufacturer's recommendations. For Flow Cytometry, spleen and lymph node single cell suspensions were prepared by mashing the tissue in 2% FBS/PBS. Tumor and control prostate tissue (from anterior lobes) single cell suspension was prepared by mincing the tumor and digestion with Collagenase Type I (Life Technologies #17018029) in 10% DMEM (GIBCO) for 1 hr at 37° C.”

The mark [3] stands for this setting: Trp53^pc−/− prostate tumors after treatment.

Turning to `O=C(Nc1ccc([N+](=O)[O-])cc1O)Nc1ccccc1Br` [SB225002], the “tumor growth (tumor volume by MRI)” value was “significantly suppressed the tumor growth; also recorded: significant inhibition of tumor growth” in assay [1] (Zbtb7a^pc−/− mice, intraperitoneal injection, vs vehicle) and “significantly suppressed the tumor growth; also recorded: significant inhibition of tumor growth” in assay [2] (Trp53^pc−/− mice, intraperitoneal injection, vs vehicle or control IgG). Besides, the “intra-tumoral Gr-1+/CD11b+ cells (flow cytometry)” value in assay [1] (Zbtb7a^pc−/− prostate tumors after treatment) and in assay [2] (setting [3]) was “decrease of Gr-1+/CD11b+ cells” each time. The “tumor burden (histological analysis)” value in assay [1] (Zbtb7a^pc−/− tumors, anterior prostate lobes) is “reduced tumor burden; also recorded: significantly diminished tumor involvement”; in assay [2] (Trp53^pc−/− tumors, anterior prostate lobes) it was “reduced tumor burden; also recorded: significantly diminished tumor involvement”. Moreover, in assay [1] (Zbtb7a^pc−/− tumors, normalized with β-actin, vs vehicle), the “IκBα protein level (western blot)” value was “increased IκBα protein levels”. Besides, the “expression of CXCL5 in the prostate tumors” value in assay [1] (Zbtb7a^pc−/− tumors, vs vehicle) is given as “elevated expression of CXCL5”. In addition, the “Treg cells (CD4+/FoxP3+) in tumor (flow cytometry)” value in assay [2] (setting [3]) was “less Foxp3+ cells; also recorded: less Treg cells”.
